Measured values as given in PubChem BioAssay AID192 (DTP/NCI, 2004).
Values joined by “and” are separate entries in the source; they are usually repeats but may differ in a detail not shown here. Equal entries are not always repeated. Inconclusive results and toxic doses are left out.

Test system: BDF1 mice, B16 melanoma ip, median survival T/C
Assay: NCI In Vivo Anticancer Drug Screen. Data for tumor model B16 Melanoma (intraperitoneal) in B6D2F1 (BDF1) mice
Settings: endpoint: median survival time, higher = longer survival
Method in brief: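 Transplantable tumor model; survival or tumor size measured; reported as T/C, treated over vehicle control.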

[1] = dose: 0.37 mg/kg/injection, schedule: Q01DX009 (ip), vehicle: Klucel (hydroxypropylcellulose) (HPC)
[2] = dose: 0.75 mg/kg/injection, schedule: Q01DX009 (ip), vehicle: Klucel (hydroxypropylcellulose) (HPC)
[3] = dose: 1.5 mg/kg/injection, schedule: Q01DX009 (ip), vehicle: Klucel (hydroxypropylcellulose) (HPC)
[4] = dose: 50.0 mg/kg/injection, schedule: Q01DX009 (ip), vehicle: Klucel (hydroxypropylcellulose) (HPC)
[5] = dose: 100.0 mg/kg/injection, schedule: Q01DX009 (ip), vehicle: Klucel (hydroxypropylcellulose) (HPC)
[6] = dose: 200.0 mg/kg/injection, schedule: Q01DX009 (ip), vehicle: Klucel (hydroxypropylcellulose) (HPC)
[7] = dose: 400.0 mg/kg/injection, schedule: Q01DX009 (ip), vehicle: Klucel (hydroxypropylcellulose) (HPC)
[8] = dose: 100.0 mg/kg/injection, schedule: Q01DX009 (ip), vehicle: saline with Tween-80
[9] = dose: 200.0 mg/kg/injection, schedule: Q01DX009 (ip), vehicle: saline with Tween-80
[10] = dose: 50.0 mg/kg/injection, schedule: Q01DX009 (ip), vehicle: saline
[11] = dose: 100.0 mg/kg/injection, schedule: Q01DX009 (ip), vehicle: saline
[12] = dose: 200.0 mg/kg/injection, schedule: Q01DX009 (ip), vehicle: saline
[13] = dose: 12.5 mg/kg/injection, schedule: Q01DX009 (ip), vehicle: Klucel (hydroxypropylcellulose) (HPC)
[14] = dose: 25.0 mg/kg/injection, schedule: Q01DX009 (ip), vehicle: Klucel (hydroxypropylcellulose) (HPC)
[15] = dose: 6.25 mg/kg/injection, schedule: Q01DX009 (ip), vehicle: saline with Tween-80

Question: COC(=O)c1cc([N+](=O)[O-])cc([N+](=O)[O-])c1Br was tested. Which T/C [1] did it give?
Answer: 95 % of control

Question: What about the T/C [2] of the same compound?
Answer: 101 % of control

Question: And the T/C [3]?
Answer: 88 % of control

Question: With COc1ccc(NC(=S)NNC(=S)NNc2ccccc2)cc1 as the compound, how does the T/C (dose: 100.0 mg/kg/injection, schedule: Q04DX003 (ip), vehicle: Klucel (hydroxypropylcellulose) (HPC)) read?
Answer: 97 % of control

Question: What about the T/C (dose: 200.0 mg/kg/injection, schedule: Q04DX003 (ip), vehicle: Klucel (hydroxypropylcellulose) (HPC)) of the same compound?
Answer: 93 % of control

Question: And the T/C (dose: 400.0 mg/kg/injection, schedule: Q04DX003 (ip), vehicle: Klucel (hydroxypropylcellulose) (HPC))?
Answer: 86 % of control

Question: O=C(NO)N/N=C/c1ccccc1 was tested. Which T/C (dose: 100.0 mg/kg/injection, schedule: Q04DX003 (ip), vehicle: saline with Tween-80) did it give?
Answer: 106 % of control

Question: And the T/C (dose: 200.0 mg/kg/injection, schedule: Q04DX003 (ip), vehicle: saline with Tween-80)?
Answer: 104 % of control

Question: And the T/C (dose: 400.0 mg/kg/injection, schedule: Q04DX003 (ip), vehicle: saline with Tween-80)?
Answer: 90 % of control

Question: What does the source list for Cc1c(N)nc(C(CC(N)=O)NCC(N)C(N)=O)nc1C(=O)NC(C(=O)NC(C)C(O)C(C)C(=O)NC(C(=O)NCCc1nc(-c2nc(C(=O)NCCC[S+](C)C)cs2)cs1)C(C)O)C(OC1OC(CO)C(O)C(O)C1OC1OC(CO)C(O)C(OC(N)=O)C1O)c1cnc[nH]1 (stereo not drawn)?
Answer: T/C (dose: 3.9 mg/kg/injection, schedule: Q01DX009 (ip), vehicle: saline): 107 % of control; T/C (dose: 7.8 mg/kg/injection, schedule: Q01DX009 (ip), vehicle: saline): 105 % of control; T/C (dose: 15.6 mg/kg/injection, schedule: Q01DX009 (ip), vehicle: saline): 99 % of control

Question: How did the T/C [4] turn out when Cc1ccc(C2NC(=O)c3ccccc3N2)s1 (stereo not drawn) was run?
Answer: 99 % of control

Question: And the T/C [5]?
Answer: 102 % of control

Question: What about the T/C [6] of the same compound?
Answer: 105 % of control

Question: What about the T/C [7] of the same compound?
Answer: 96 % of control

Question: What does the source list for CCc1cc(C)cc(OC(=O)Nc2cccc(Cl)c2)c1?
Answer: T/C [8]: 90 % of control; T/C [9]: 92 % of control; T/C (dose: 400.0 mg/kg/injection, schedule: Q01DX009 (ip), vehicle: saline with Tween-80): 86 % of control

Question: Which T/C [10] does the source give for Cc1cc(C)[nH]c(=S)n1 here?
Answer: 95 % of control

Question: And the T/C [11]?
Answer: 95 % of control

Question: What about the T/C [12] of the same compound?
Answer: 106 % of control

Question: For CC(=O)Nc1ccc(C)c(Cl)c1, which T/C [8] is on record?
Answer: 111 % of control

Question: What about the T/C [9] of the same compound?
Answer: 90 % of control

Question: How did the T/C [13] turn out when CCOC(=O)CNC(=O)Sc1ccc(C(C)(C)C)cc1 was run?
Answer: 97 % of control

Question: And the T/C [14]?
Answer: 101 % of control

Question: What about the T/C [4] of the same compound?
Answer: 104 % of control

Question: And the T/C [5]?
Answer: 106 % of control

Question: And the T/C [6]?
Answer: 106 % of control

Question: What about the T/C [7] of the same compound?
Answer: 120 % of control

Question: What does the source list for CC(C)=CCC1=C(O)c2ccccc2C(=O)C1=O?
Answer: T/C [15]: 90 % of control; T/C (dose: 8.33 mg/kg/injection, schedule: Q#B X027 (ip), vehicle: water): 100 % of control; T/C (dose: 12.5 mg/kg/injection, schedule: Q01DX009 (ip), vehicle: saline with Tween-80): 90 % of control; T/C (dose: 16.66 mg/kg/injection, schedule: Q#B X027 (ip), vehicle: water): 103 % of control; T/C (dose: 16.66 mg/kg/injection, schedule: Q#B X027 (sc), vehicle: water): 106 % of control; T/C (dose: 25.0 mg/kg/injection, schedule: Q#A X018 (oral), vehicle: water): 90 % of control; T/C (dose: 33.33 mg/kg/injection, schedule: Q#B X027 (ip), vehicle: water): 100 % of control; T/C (dose: 33.33 mg/kg/injection, schedule: Q#B X027 (oral), vehicle: water): 100 % of control; T/C (dose: 33.33 mg/kg/injection, schedule: Q#B X027 (sc), vehicle: water): 106 % of control; T/C (dose: 50.0 mg/kg/injection, schedule: Q01DX009 (ip), vehicle: saline with Tween-80): 88 % of control and 97 % of control; T/C (dose: 50.0 mg/kg/injection, schedule: Q#A X018 (oral), vehicle: water): 86 % of control; T/C (dose: 66.66 mg/kg/injection, schedule: Q#B X027 (ip), vehicle: water): 96 % of control; T/C (dose: 66.66 mg/kg/injection, schedule: Q#B X027 (oral), vehicle: water): 106 % of control; T/C (dose: 66.66 mg/kg/injection, schedule: Q#B X027 (sc), vehicle: water): 93 % of control; T/C [8]: 95 % of control; T/C (dose: 100.0 mg/kg/injection, schedule: Q01DX018 (oral), vehicle: water): 106 % of control; T/C (dose: 100.0 mg/kg/injection, schedule: Q#A X018 (oral), vehicle: water): 100 % of control; T/C (dose: 133.33 mg/kg/injection, schedule: Q#B X027 (oral), vehicle: water): 120 % of control; T/C (dose: 133.33 mg/kg/injection, schedule: Q#B X027 (sc), vehicle: water): 93 % of control; T/C (dose: 175.0 mg/kg/injection, schedule: Q01DX018 (oral), vehicle: water): 96 % of control; T/C (dose: 175.0 mg/kg/injection, schedule: Q#A X018 (oral), vehicle: water): 113 % of control; T/C [9]: 95 % of control; T/C [12]: 119 % of control; T/C (dose: 250.0 mg/kg/injection, schedule: Q01DX018 (oral), vehicle: water): 106 % of control; T/C (dose: 250.0 mg/kg/injection, schedule: Q#A X018 (oral), vehicle: water): 106 % of control; T/C (dose: 325.0 mg/kg/injection, schedule: Q01DX018 (oral), vehicle: water): 113 % of control

Question: How did the T/C (dose: 0.63 mg/kg/injection, schedule: Q01DX001 (ip), vehicle: water) turn out when COc1cccc2c1C(=O)c1c(O)c3c(c(O)c1C2=O)C[C@@](O)(C(=O)CO)C[C@@H]3OC1CC(N(C)C)C(O)C(C)O1 (stereo partly drawn) was run?
Answer: 119 % of control

Question: What about the T/C (dose: 1.73 mg/kg/injection, schedule: Q04DX003 (ip), vehicle: water) of the same compound?
Answer: 98 % of control

Question: And the T/C (dose: 3.6 mg/kg/injection, schedule: Q01DX001 (ip), vehicle: water)?
Answer: 117 % of control

Question: And the T/C (dose: 4.8 mg/kg/injection, schedule: Q04DX003 (ip), vehicle: water)?
Answer: 94 % of control and 113 % of control

Question: What about the T/C (dose: 5.0 mg/kg/injection, schedule: Q01DX001 (ip), vehicle: water) of the same compound?
Answer: 166 % of control and 170 % of control

Question: What about the T/C (dose: 6.0 mg/kg/injection, schedule: Q01DX001 (ip), vehicle: water) of the same compound?
Answer: 104 % of control

Question: Which results are given for Nc1nc(N)c2nc(CN(CCO)c3ccc(C(=O)NC(CCC(=O)O)C(=O)O)cc3)cnc2n1 (stereo not drawn)?
Answer: T/C (dose: 0.1 mg/kg/injection, schedule: Q01DX009 (ip), vehicle: Klucel (hydroxypropylcellulose) (HPC)): 107 % of control; T/C (dose: 0.2 mg/kg/injection, schedule: Q01DX009 (ip), vehicle: Klucel (hydroxypropylcellulose) (HPC)): 101 % of control; T/C [1]: 99 % of control; T/C [2]: 109 % of control; T/C (dose: 1.0 mg/kg/injection, schedule: Q01DX009 (ip), vehicle: Klucel (hydroxypropylcellulose) (HPC)): 157 % of control; T/C [3]: 97 % of control

Question: How did the T/C (dose: 20.0 mg/kg/injection, schedule: Q01DX009 (ip), vehicle: saline with Tween-80) turn out when OCc1cc2c([nH]c3ccccc32)c(C(O)CO)n1 (stereo not drawn) was run?
Answer: 102 % of control

Question: What about the T/C (dose: 40.0 mg/kg/injection, schedule: Q01DX009 (ip), vehicle: saline with Tween-80) of the same compound?
Answer: 99 % of control

Question: What about the T/C (dose: 80.0 mg/kg/injection, schedule: Q01DX009 (ip), vehicle: saline with Tween-80) of the same compound?
Answer: 97 % of control

Question: Which results are given for CCCCC(C(=O)OCC)C(CCC1CCCCC1)(C(=O)OCC)C(=O)OCC (stereo not drawn)?
Answer: T/C (dose: 12.5 mg/kg/injection, schedule: Q04DX003 (ip), vehicle: Klucel (hydroxypropylcellulose) (HPC)): 90 % of control; T/C (dose: 25.0 mg/kg/injection, schedule: Q04DX003 (ip), vehicle: Klucel (hydroxypropylcellulose) (HPC)): 99 % of control; T/C (dose: 50.0 mg/kg/injection, schedule: Q04DX003 (ip), vehicle: Klucel (hydroxypropylcellulose) (HPC)): 87 % of control and 89 % of control

Question: How did the T/C [10] turn out when Nc1ncnc(N)c1N=O was run?
Answer: 118 % of control

Question: And the T/C [11]?
Answer: 115 % of control

Question: For CCCCCCCCCCCC[N+](C)(C)CCCCCCCCCCCC, which T/C (dose: 4.0 mg/kg/injection, schedule: Q01DX009 (ip), vehicle: saline) is on record?
Answer: 87 % of control

Question: What about the T/C (dose: 8.0 mg/kg/injection, schedule: Q01DX009 (ip), vehicle: saline) of the same compound?
Answer: 88 % of control and 94 % of control

Question: Which T/C (dose: 6.25 mg/kg/injection, schedule: Q01DX009 (ip), vehicle: Klucel (hydroxypropylcellulose) (HPC)) does the source give for C=C1C(=O)OC2/C=C(\C)CC/C=C(/C=O)C(OC)C(OC(=O)C(C)C)C12 (stereo not drawn) here?
Answer: 113 % of control

Question: And the T/C [13]?
Answer: 111 % of control

Question: What about the T/C [14] of the same compound?
Answer: 104 % of control

Question: Which results are given for C1CC2CCC3CCCC4CCC(C1)C2C34 (stereo not drawn)?
Answer: T/C (dose: 3.13 mg/kg/injection, schedule: Q01DX009 (ip), vehicle: saline with Tween-80): 95 % of control; T/C [15]: 89 % of control

Question: Which results are given for Nc1ccc(C(=O)Oc2ccc([N+](=O)[O-])cc2)c(O)c1?
Answer: T/C [5]: 87 % of control; T/C [6]: 97 % of control

Question: For COc1ccc(I)c([N+](=O)[O-])c1, which T/C [4] is on record?
Answer: 93 % of control

Question: And the T/C [5]?
Answer: 93 % of control

Question: What about the T/C [6] of the same compound?
Answer: 87 % of control
